Measured values: ChEMBL document CHEMBL5053556, “Design, Synthesis, and Biological Evaluation of a Novel Series of Teriflunomide Derivatives as Potent Human Dihydroorotate Dehydrogenase Inhibitors for Malignancy Treatment” (J Med Chem, 2021)
Converted amounts (≈) assume the structure as drawn.

Columns and labels:
[1] = target: T1, Dihydroorotate dehydrogenase (quinone), mitochondrial (Homo sapiens, UniProt Q02127); conditions: dose 100.0 nM, time 30.0 min
[2] = target: T1, Dihydroorotate dehydrogenase (quinone), mitochondrial
Description: Inhibition of human DHODH using dihydroorotate substrate preincubated for 30 mins followed by substrate addition by DCIP based microplate reader analysis

Raji = test: Antiproliferative activity against human Raji cells assessed as cell growth inhibition incubated for 96 hrs by MTT assay; format: functional, cell-based
SK-MEL-28 = test: Antiproliferative activity against human SK-MEL-28 cells assessed as cell growth inhibition incubated for 96 hrs by MTT assay; format: functional, cell-based; conditions: SK-MEL-28, 96 h
L02 = test: cells; format: ADME, cell-based; conditions: Homo sapiens, L02, 96 h
Description: Cytotoxicity against human L02 cells assessed as cell growth inhibition incubated for 96 hrs by MTT assay

A-375 = test: Antiproliferative activity against human A-375 cells assessed as cell growth inhibition incubated for 96 hrs by MTT assay; format: functional, cell-based; conditions: A-375, 96 h
HCT-116 = test: Antiproliferative activity against human HCT-116 cells assessed as cell growth inhibition incubated for 96 hrs by MTT assay; format: functional, cell-based; conditions: HCT-116, 96 h
A549 = test: Antiproliferative activity against human A549 cells assessed as cell growth inhibition incubated for 96 hrs by MTT assay; format: functional, cell-based; conditions: A549, 96 h
K562 = test: Antiproliferative activity against human K562 cells assessed as cell growth inhibition incubated for 96 hrs by MTT assay; format: functional, cell-based; conditions: K562, 96 h
physchem = conditions: aqueous
Description: Aqueous solubility of compound by UPLC method

in vitro = conditions: human, L02 cells and Raji cells
Description: Selectivity index, ratio of IC50 for human L02 cells to IC50 for human Raji cells

T1 sequence (Q02127 whole entry): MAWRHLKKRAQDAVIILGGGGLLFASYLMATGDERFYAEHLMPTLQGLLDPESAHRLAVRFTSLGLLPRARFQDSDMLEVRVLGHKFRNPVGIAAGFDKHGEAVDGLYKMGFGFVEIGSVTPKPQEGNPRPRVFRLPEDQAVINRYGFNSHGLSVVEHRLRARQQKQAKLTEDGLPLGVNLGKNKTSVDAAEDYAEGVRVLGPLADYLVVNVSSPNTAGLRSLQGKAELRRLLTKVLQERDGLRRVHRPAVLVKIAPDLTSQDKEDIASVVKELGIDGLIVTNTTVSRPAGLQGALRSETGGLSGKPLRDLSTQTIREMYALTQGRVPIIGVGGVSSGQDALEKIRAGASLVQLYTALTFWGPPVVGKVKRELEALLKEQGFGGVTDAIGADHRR

inhibition [1]	IC50 [2]	Compound	also measured
40.2%	–	CCOc1cc(NC(=O)/C(C#N)=C(/C)O)c(F)cc1C(=O)Nc1c(F)cccc1F	–
67.7%	0.0311 µM	COc1cc(NC(=O)/C(C#N)=C(/C)O)c(F)cc1C(=O)Nc1c(F)cccc1Cl	–
66.8%	–	COc1cccc(-c2cc(F)c(Nc3ncccc3C(=O)O)c(F)c2)c1 [ASLAN-003]	IC50 (Raji): 0.3 µM; IC50 (SK-MEL-28): 1.3 µM; IC50 (L02): 0.487 µM; IC50 (A-375): 0.7 µM; IC50 (HCT-116): 5.1 µM; IC50 (A549): 0.9 µM; IC50 (K562): 2.7 µM
96.4%	0.0057 µM	C/C(O)=C(\C#N)C(=O)Nc1cc(O[C@@H](C)C(F)(F)F)c(C(=O)Nc2c(Cl)cccc2Cl)cc1F	IC50 (Raji): 0.0321 µM; IC50 (L02): 0.452 µM; solubility (physchem): 2400 µg/mL (≈ 4610 µM); selectivity ratio (in vitro): 14.1
72.7%	0.04 µM	CCOc1cc(NC(=O)/C(C#N)=C(/C)O)c(F)cc1C(=O)Nc1c(F)cccc1Br	–
63.8%	0.0441 µM	CCOc1cc(NC(=O)/C(C#N)=C(/C)O)c(F)cc1C(=O)Nc1c(F)cccc1Cl	–
70.7%	0.0224 µM	C/C(O)=C(\C#N)C(=O)Nc1cc(OC(C)C)c(C(=O)Nc2c(F)cccc2Cl)cc1F	IC50 (Raji): 0.3 µM; IC50 (SK-MEL-28): 0.3 µM; IC50 (A-375): 1.1 µM; IC50 (HCT-116): 7.3 µM; IC50 (A549): 0.9 µM; IC50 (K562): 2.3 µM; solubility (physchem): 465 µg/mL (≈ 1030 µM)
5.3%	–	COc1ccccc1NC(=O)c1cc(F)c(NC(=O)/C(C#N)=C(/C)O)cc1OC(C)C	–
53.4%	–	C/C(O)=C(\C#N)C(=O)Nc1ccc(C(=O)Nc2c(F)cccc2F)c(OC(C)C)c1	–
21.3%	–	COc1cccc(NC(=O)c2cc(F)c(NC(=O)/C(C#N)=C(/C)O)cc2OC(C)C)c1	–
62.7%	0.0472 µM	C/C(O)=C(\C#N)C(=O)Nc1cc(OC(C)C)c(C(=O)Nc2ccccc2Cl)cc1F	–
26.4%	–	C/C(O)=C(\C#N)C(=O)Nc1cc(F)c(C(=O)Nc2c(F)cccc2Cl)cc1F	–
85.4%	0.0182 µM	C/C(O)=C(\C#N)C(=O)Nc1cc(OC(C)C)c(C(=O)Nc2c(F)cccc2Br)cc1F	IC50 (Raji): 0.347 µM; IC50 (L02): 2.1 µM; selectivity ratio (in vitro): 6.1
70.5%	0.0362 µM	C/C(O)=C(\C#N)C(=O)Nc1cc(OC(C)C)c(C(=O)Nc2c(F)cccc2F)cc1F	–
